Common to all, as to format: cell-based
The subject of one assay is HEK293 cells. Nature of the assay: Anti-proliferation activity of unconjugated compounds in HEK293. The settings on record: Homo sapiens. On the procedure:
(§1) Cells were seeded in PDL-coated 96 well plates at 375 (MMT/hEGFRvIII), 1500 (U251/hEGFRvIII), 2000 (HEK293/hEGFRvIII), or 3000 (C4-2, PC3/hSTEAP1, T47D, and U87-MG) cells per well in complete growth media and grown overnight. For cell viability curves, serially diluted conjugates or free representative payloads were added to the cells at final concentrations ranging from 500 nM to 1 pM and incubated for 3 days. To measure viability in MMT/hEGFRvIII, U251/hEGFRvIII, HEK293/hEGFRvIII, C4-2, PC3/hSTEAP1, and U87-MG, cells were incubated with CCK8 (Dojindo) for the final 1-3 hours and the absorbance at 450 nm (OD450) was determined on a Flexstation3 (Molecular Devices). To measure viability in T47D, cells were incubated on ice for 30 min in 4% formaldehye+3 ug/ml Hoechst. Images of Hoechst stained nuclei were acquired on the ImageXpress Micro XL (Molecular Devices) and nuclear counts were determined with the Columbus analysis software (PerkinElmer). Background OD450 levels (CCK8) or nuclear counts from digitonin ([…]) treated cells were subtracted from all wells and viability is expressed as a percentage of the untreated controls. IC50 values were determined from a four-parameter logistic equation over a 10-point response curve (GraphPad Prism). All curves and IC50 values are corrected for payload equivalents.
(§2) In a separate set of experiments, compound 6, along with amino analogs 27, 29, and 31 were assayed in HEK293 and U87MG for anti-proliferation activity (FIG. 7). […] (For these experiments, background correction with digitonin was not performed).
(§3) In yet another set of experiments, compounds 6, 9, 33, and 35 were assayed in HEK293, U251, C4-2, PC3, and MMT for anti-proliferation activity (FIG. 8). The trend in potency follows 9>33>35>6 and is consistent for the 5 cell lines assayed.

The test system of another assay is MMT cells. The assay is described as follows: Anti-proliferation activity of unconjugated compounds in MMT. Particulars: unconjugated (Table 2, FIG. 8). The method, then: as §1, §3
A further assay relates to U251 cells. The assay is described as follows: Anti-proliferation activity of unconjugated compounds in U251. Particulars: Homo sapiens, U-251; U251, unconjugated (Table 2, FIG. 8). The method, then:
as §1, §3

In another assay the test system is PC3 cells. The assay is described as follows: Anti-proliferation activity of unconjugated compounds in PC3. The settings on record: Homo sapiens, PC-3; PC3, unconjugated (Table 2, FIG. 8). On the procedure:
as §1, §3

The subject of assay [1] is C4-2 cells (prostate cancer line). Nature of the assay: In vitro cytotoxicity (cell viability, CCK8) in C4-2 cells. The settings on record: C4-2, unconjugated (Table 2, FIG. 8). The method, then:
as §1

The subject of the next assay is U87MG cells. The assay is described as follows: Anti-proliferation activity of unconjugated compounds in U87MG. The settings on record: Homo sapiens, U-87 MG, background correction with digitonin not performed (FIG. 7). The method, then:
as §1, §2

The mark [2] stands for this setting: HEK293, unconjugated (Table 2, FIG. 8), read-out: IC50 (nM) HEK293.
Where [3] appears, read: HEK293, unconjugated, background correction with digitonin not performed (FIG. 7), read-out: IC50.

Where two headings read alike, the source gives them in different places. A value given as a limit tells only on which side of the number the result lay.

As usually defined, the IC50 is the concentration needed to halve the response being measured.

For `COc1cc2cc(c1Cl)N(C)C(=O)C[C@H](OC(=O)[C@H](C)N(C)C(=O)c1ccc3c(c1)CCNC3)[C@]1(C)O[C@H]1[C@H](C)[C@@H]1C[C@@](O)(NC(=O)O1)[C@H](OC)/C=C/C=C(\C)C2` [Compound 33, Maytansin-3-N-methyl-L-N-alanine-N-carboxy-6-(1,2,3,4-tetrahydroisoquinoline)], the IC50 amounted to 20 nM in the assay on HEK293 cells (setting [2]); 20 nM in the assay with MMT cells; 15 nM with U251 cells; 30 nM in the assay with PC3 cells; 20 nM in assay [1].
`COc1cc2cc(c1Cl)N(C)C(=O)C[C@H](OC(=O)[C@H](C)N(C)C(=O)CCCN)[C@]1(C)O[C@H]1[C@H](C)[C@@H]1C[C@@](O)(NC(=O)O1)[C@H](OC)/C=C/C=C(\C)C2` [Compound 29, Maytansin-3-N-methyl-L-(S)-alanine-γ-aminobutyramide]: the IC50 in the assay with HEK293 cells (setting [3]) was more than 30 nM; in the assay with U87MG cells, more than 0.03 µM.
For `COc1cc2cc(c1Cl)N(C)C(=O)C[C@H](OC(=O)[C@H](C)N(C)C(=O)C1CCNCC1)[C@]1(C)O[C@H]1[C@H](C)[C@@H]1C[C@@](O)(NC(=O)O1)[C@H](OC)/C=C/C=C(\C)C2` [Compound 35, Maytansin-3-N-methyl-L-(S)-alanine-N-carboxy-4-piperidine], the IC50 in the assay with HEK293 cells (setting [2]) was 50 nM; with MMT cells, 60 nM; in the assay with U251 cells it was 25 nM; in the assay on PC3 cells, 65 nM; in assay [1], 55 nM.
Take `CNCCC(=O)N(C)[C@@H](C)C(=O)O[C@H]1CC(=O)N(C)c2cc(cc(OC)c2Cl)C/C(C)=C/C=C/[C@@H](OC)[C@@]2(O)C[C@H](OC(=O)N2)[C@@H](C)[C@@H]2O[C@@]12C` [Compound 6]: the IC50 is 200 nM in the assay on HEK293 cells (setting [2]); more than 30 nM with HEK293 cells (setting [3]); more than 0.03 µM in the assay with U87MG cells; 250 nM in the assay with MMT cells; 150 nM in the assay with U251 cells; 250 nM in the assay with PC3 cells. This molecule displayed an IC50 in assay [1] of 200 nM.
On to `COc1cc2cc(c1Cl)N(C)C(=O)C[C@H](OC(=O)[C@H](C)N(C)C(=O)CCN)[C@]1(C)O[C@H]1[C@H](C)[C@@H]1C[C@@](O)(NC(=O)O1)[C@H](OC)/C=C/C=C(\C)C2` [Compound 27, Maytansin-3-N-methyl-L-(S)-alanine-β-alanine], for which the IC50 was more than 30 nM in the assay on HEK293 cells (setting [3]) and more than 0.03 µM in the assay on U87MG cells.
As to `COc1cc2cc(c1Cl)N(C)C(=O)C[C@H](OC(=O)[C@H](C)N(C)C(=O)CCSSC)[C@]1(C)O[C@H]1[C@H](C)[C@@H]1C[C@@](O)(NC(=O)O1)[C@H](OC)/C=C/C=C(\C)C2` [Compound 9, Maytansin-3-N-methyl-L-(S)-alanine-propanamidyl-3-methyldisulfide], the IC50 in the assay with HEK293 cells (setting [2]) stood at 0.2 nM; in the assay with MMT cells, 0.3 nM; with U251 cells it was 0.4 nM; with PC3 cells, 0.4 nM; in assay [1], 1.5 nM.
In the case of `CNCCCC(=O)N(C)[C@@H](C)C(=O)O[C@H]1CC(=O)N(C)c2cc(cc(OC)c2Cl)C/C(C)=C/C=C/[C@@H](OC)[C@@]2(O)C[C@H](OC(=O)N2)[C@@H](C)[C@@H]2O[C@@]12C` [Compound 31, Maytansin-3-N-methyl-L-(8)-alanine-N-Me-γ-aminobutyramide], the IC50 in the assay with HEK293 cells (setting [3]) is more than 30 nM; in the assay with U87MG cells it was more than 0.03 µM.

(Values after patent US10570151B2, “Biologically active molecules, conjugates thereof, and therapeutic uses” (priority 2013, dated 2020).)
